pEC50, pIC50: −log10 of the molar value.
Columns and labels:
[1] = biological target: purified recombinant Plasmodium falciparum methylerythritol cytidyltransferase (PfIspD) enzyme (Plasmodium falciparum, UniProt Q8I273); test: biochemical; details: nonlinear regression
Method: Compounds listed in Table 1 were tested for activity against purified recombinant Plasmodium falciparum methylerythritol cytidyltransferase (PfIspD) enzyme. […] Each compound was evaluated for enzymatic inhibition over several concentrations. Nonlinear regression analysis (GraphPad Prism) was used to determine the half-maximal inhibitory concentration (IC50) for each compound.

[2] = test system: cultured Plasmodium falciparum parasite strain 3D7; test: Antimalarial efficacy, parasite growth inhibition by Sybr Green staining; type: cell-based; details: P. falciparum strain 3D7
Method: Each compound was tested for the ability to inhibit growth of a standard cultured Plasmodium falciparum parasite strain 3D7. Parasite growth was monitored by staining with the DNA fluorophore Sybr Green, as previously described for the antimalarial fosmidomycin in Zhang et al., Biochemistry, (2011) 50(17), 3570-3577. Each compound was evaluated for antimalarial activity over several concentrations. Nonlinear regression analysis was used to determine the concentration of half-maximal antimalarial efficacy (EC50) for each compound.

MEP pathway = test: Metabolic profiling of inhibitor-treated malaria parasites (LC-MS/MS); type: cell-based; details: parasite lines treated with compound, FIG. 3
From the text: A quantitative liquid chromatography-mass spectrometry method (LC-MS/MS) was developed to determine the cellular levels of metabolites in the MEP pathway. This method allows determination of whether the MEP pathway has been inhibited in malaria parasites treated with MEP pathway inhibitors of the present invention. This method has been previously used to validate the cellular metabolic effects of the known MEP pathway inhibitor fosmidomycin (Zhang et al., Biochemistry 2011).

Chain of purified recombinant Plasmodium falciparum methylerythritol cytidyltransferase (PfIspD) enzyme (Q8I273 entry or part of it): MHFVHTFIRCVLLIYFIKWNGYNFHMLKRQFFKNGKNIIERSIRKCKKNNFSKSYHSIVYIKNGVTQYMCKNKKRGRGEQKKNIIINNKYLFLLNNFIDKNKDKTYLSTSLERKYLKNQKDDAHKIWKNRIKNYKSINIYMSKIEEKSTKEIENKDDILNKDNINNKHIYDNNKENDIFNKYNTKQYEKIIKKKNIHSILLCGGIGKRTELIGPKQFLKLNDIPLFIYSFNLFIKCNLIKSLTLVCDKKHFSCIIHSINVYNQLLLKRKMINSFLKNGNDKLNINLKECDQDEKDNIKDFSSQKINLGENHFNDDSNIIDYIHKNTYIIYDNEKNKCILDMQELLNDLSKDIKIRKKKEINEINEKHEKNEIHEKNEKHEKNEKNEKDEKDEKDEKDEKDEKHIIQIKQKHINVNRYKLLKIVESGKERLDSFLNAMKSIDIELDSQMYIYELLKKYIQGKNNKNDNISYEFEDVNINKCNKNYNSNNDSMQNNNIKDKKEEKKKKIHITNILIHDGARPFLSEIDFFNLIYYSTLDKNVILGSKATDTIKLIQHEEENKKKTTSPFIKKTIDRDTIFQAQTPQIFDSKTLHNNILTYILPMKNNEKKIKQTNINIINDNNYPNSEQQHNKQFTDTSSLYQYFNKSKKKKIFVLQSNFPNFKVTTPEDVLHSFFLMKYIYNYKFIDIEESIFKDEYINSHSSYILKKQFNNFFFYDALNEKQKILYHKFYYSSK

pIC50 [1] | SMILES | pEC50 [2] | cellular level of downstream MEP pathway metabolite CDP-ME (MEP pathway) | cellular level of downstream MEP pathway metabolite cMEPP (MEP pathway)
4.25 | O=c1[nH]sc2ncccc12 [Compound 50, Isothiazolo[5,4-b]pyridin-3(2H)-one] | 3.80 | – | –
5.82 | O=c1c2cccnc2sn1Cc1ccccc1 [Compound 52, 2-benzylisothiazolo[5,4-b]pyridin-3(2H)-one] | – | – | –
6.82 | COC(=O)c1cccc(-n2sc3ccccc3c2=O)c1 [Compound 45, Methyl-3-(3-oxobenzo[d]isothiazol-2(3H)-yl)benzoate] | 4.93 | – | –
6.06 | COc1ccc(S(=O)(=O)N2CCC(F)CC2)cc1-n1sc2ccccc2c1=O [Compound 26, 2-(5-((4-fluoropiperidin-1-yl)sulfonyl)-2-methoxyphenyl)benzo[d]isothiazol-3(2H)-one] | 5.21 | – | –
5.97 | COc1ccc(S(=O)(=O)N2CCOCC2)cc1-n1sc2ccccc2c1=O [Compound 24, 2-(2-methoxy-5-(morpholinosulfonyl)phenyl)benzo[d]isothiazol-3(2H)-one] | 5.06 | – | –
5.87 | COc1ccc(Cn2sc3ccccc3c2=O)cc1 [Compound 51, 2-(4-methoxybenzyl)benzo[d]isothiazol-2(3H)-one] | 4.17 | – | –
5.71 | O=c1c2ccccc2sn1-c1cc(S(=O)(=O)N2CCCOCC2)ccc1O [Compound 40, 2-(5-((1,4-oxazepan-4-yl)sulfonyl)-2-hydroxyphenyl)benzo[d]isothiazol-3(2H)-one] | 4.83 | – | –
4.23 | Cc1nnsc1C(=O)Nc1cc(S(=O)(=O)N2CCCCC2)ccc1O [Compound 19, N-[2-hydroxy-5-(piperidine-1-sulfonyl)phenyl]-4-methyl-1,2,3-thiadiazole-5-carboxamide] | < 3.70 | – | –
5.61 | O=c1c2ccccc2sn1Cc1ccccc1 [Compound 48, 2-benzylbenzo[d]isothiazol-2(3H)-one] | – | – | –
5.27 | O=c1c2ccccc2sn1-c1cc(S(=O)(=O)N2CCCCC2)ccc1O [Compound 39, 2-(2-hydroxy-5-(piperidin-1-ylsulfonyl)phenyl)benzo[d]isothiazol-3(2H)-one] | 5.04 | – | –
4.88 | O=c1c2ccccc2sn1-c1cc(S(=O)(=O)N2CCC(F)CC2)ccc1O [Compound 38, 2-(5-((4-fluoropiperidin-1-yl)sulfonyl)-2-hydroxyphenyl)benzo[d]isothiazol-3(2H)-one] | 5.00 | – | –
5.71 | COc1ccc(S(=O)(=O)N2CCN(C)CC2)cc1-n1sc2ccccc2c1=O [Compound 28, 2-(2-methoxy-5-((4-methylpiperazin-1-yl)sulfonyl)phenyl)benzo[d]isothiazol-3(2H)-one] | 5.61 | – | –
6.21 | O=c1c2ccccc2sn1Cc1ccc(Cl)cc1 [Compound 49, 2-(4-chlorobenzyl)benzo[d]isothiazol-2(3H)-one] | 4.75 | – | –
6.77 | O=c1c2ccccc2sn1-c1ccccn1 [Compound 47, 2-(pyridin-2-yl)benzo[d]isothiazol-2(3H)-one] | 4.15 | – | –
5.14 | O=c1c2ccccc2sn1-c1cc(S(=O)(=O)N2CCOCC2)ccc1N1CCCC1 [Compound 2, 1,2-benzisothiazol-3(2H)-one,2-[-5-(4-morpholinylsulfonyl)-2-(1-pyrrolidinyl)phenyl]] | 4.77 | – | –
6.32 | O=C(O)c1cccc(-n2sc3ccccc3c2=O)c1 [Compound 46, 3-(3-oxobenzo[d]isothiazol-2(3H)-yl)benzoic acid] | < 3.70 | – | –
6.30 | Cc1ccc(-n2sc3ccccc3c2=O)cc1S(=O)(=O)N1CCOCC1 [Compound 3, 1,2-benzisothiazol-3(2H)-one,2-[4-methyl-3-(4-morpholinylsulfonyl)phenyl]] | 5.30 | – | –
6.18 | O=c1c2ccccc2sn1-c1cccc(S(=O)(=O)N2CCOCC2)c1 [Compound 10, 2-(3-morpholinosulfonyl)phenylbenzo[d]isothiazol-3(2H)-one] | 5.13 | – | –
6.15 | O=c1c2ccccc2sn1-c1cc(S(=O)(=O)N2CCOCC2)ccc1O [Compound 37, 2-(2-hydroxy-5-(morpholinosulfonyl)phenyl)benzo[d]isothiazol-3(2H)-one] | 5.12 | – | –
5.94 | COc1ccc(S(=O)(=O)N2CCNCC2)cc1-n1sc2ccccc2c1=O [Compound 36, 2-(2-methoxy-5-(piperazin-1-ylsulfonyl)phenyl)benzo[d]isothiazol-3(2H)-one] | 6.01 | – | –
6.54 | O=c1c2ccccc2sn1-c1cccc(-c2ccsc2)c1 [Compound 42, 2-(3-(thiophen-3-yl)phenyl)benzo[d]isothiazol-3(2H)-one] | 5.54 | – | –
6.80 | O=c1c2ccccc2sn1-c1cccc(-c2ccc(Cl)cc2)c1 [Compound 43, 2-(4′-chloro-[1,1′biphenyl]-3-yl)benzo[d]isothiazol-3(2H)-one] | 6.21 | – | –
6.27 | COc1ccc(S(=O)(=O)N2CCCOCC2)cc1-n1sc2ccccc2c1=O [Compound 27, 2-(5-((1,4-oxazepan-4-yl)sulfonyl)-2-methoxyphenyl)benzo[d]isothiazol-3(2H)-one] | 5.04 | – | –
< 3.70 | CSc1ccccc1C(=O)Nc1cccc(S(=O)(=O)N2CCOCC2)c1 [Compound 11, 2-(methylthio)-(N-((3-morpholinosulfonyl)phenyl)benzamide)] | 4.08 | – | –
– | COc1ccc(-c2cccc(-n3sc4ccccc4c3=O)c2)cc1 [Compound 41, 2-(4′-methoxy-[1,1′biphenyl]-3-yl)benzo[d]isothiazol-3(2H)-one] | 6.11 | significantly decreased | significantly decreased
6.09 | COc1ccc(S(=O)(=O)N2CCCCC2)cc1-n1sc2ccccc2c1=O [Compound 25, 2-(2-methoxy-5-(piperidin-1-ylsulfonyl)phenyl)benzo[d]isothiazol-3(2H)-one] | 4.84 | – | –
6.51 | O=c1c2ccccc2sn1-c1cccc(-c2ccc(C(F)(F)F)cc2)c1 [Compound 44, 2-(4′-(trifluoromethyl)-[1,1′biphenyl]-3-yl)benzo[d]isothiazol-3(2H)-one] | 6.35 | – | –
4.51 | O=c1c2ccccc2sn1-c1ccc(S(=O)(=O)N2CCOCC2)cc1 [Compound 4, 1,2-benzisothiazol-3(2H)-one,2-[4-(4-morpholinylsulfonyl)phenyl]] | 4.68 | – | –
